The source of these data is patent publication US7795236B2, “Purine nucleoside derivative modified in 8-position and medical use thereof” (Kissei Pharmaceutical Co., Ltd., priority 2005, dated 2010).

pIC50: −log10 of the molar value. Bounds are passed on as bounds.

In general, pIC50 refers to the IC50 on a negative log10 scale, so that one unit is a factor of ten.

In the first experiment the target is T1, human CNT2 (Homo sapiens, UniProt O43868, I160M/P22L/S45C).
T1 construct: expressed in transfected cells; host or cells: COS-7 cells (RIKEN CELL BANK RCB0539), transient lipofection of a pCI-neo plasmid
T1 sequence (O43868 1-658 P22L/S45C/I160M): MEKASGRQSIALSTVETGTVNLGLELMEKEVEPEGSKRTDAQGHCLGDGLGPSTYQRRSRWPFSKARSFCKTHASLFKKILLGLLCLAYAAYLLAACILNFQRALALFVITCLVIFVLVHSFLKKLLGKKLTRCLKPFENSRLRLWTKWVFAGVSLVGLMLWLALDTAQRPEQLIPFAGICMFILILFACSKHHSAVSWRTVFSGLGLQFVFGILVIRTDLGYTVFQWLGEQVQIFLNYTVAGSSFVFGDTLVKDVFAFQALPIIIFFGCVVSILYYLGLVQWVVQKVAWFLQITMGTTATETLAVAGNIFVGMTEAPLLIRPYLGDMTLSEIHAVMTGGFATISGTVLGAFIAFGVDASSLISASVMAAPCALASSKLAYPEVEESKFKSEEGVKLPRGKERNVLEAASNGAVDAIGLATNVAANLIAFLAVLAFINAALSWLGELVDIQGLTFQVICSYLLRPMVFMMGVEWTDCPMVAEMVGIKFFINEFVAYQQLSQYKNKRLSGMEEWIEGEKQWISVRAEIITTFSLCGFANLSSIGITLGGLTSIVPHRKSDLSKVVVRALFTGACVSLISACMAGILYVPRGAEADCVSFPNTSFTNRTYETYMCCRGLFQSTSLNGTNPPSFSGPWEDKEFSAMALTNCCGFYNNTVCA
Put plainly: Inhibitory activity against uptake of inosine through human CNT2. Type of experiment: cell-based. The settings on record: 14C-labeled inosine 10 μM, COS-7 cells transiently expressing human CNT2, 30 minutes at 37° C. The protocol:
Expression plasmid of human CNT2 was transfected into COS-7 cells (RIKEN CELL BANK RCB0539) by lipofection method. LIPOFECTAMINE 2000 (Invitrogen) was used as a lipofection reagent. COS-7 cells were diluted in D-MEM (Invitrogen) containing 10% fetal calf serum (Sanko Junyaku) at 5×10^5/1 mL, and seeded into collagen-coated 96-well plates (IWAKI) at 100 μL/well and cultured at 37° C. for 2 hours with 5% CO2 condition. For each well, 0.6 μL of LIPOFECTAMINE 2000 (Invitrogen) was diluted in 25 μL of OPTI-MEM (Invitrogen), and incubated for 7 minutes at room temperature (hereinafter referred to as Lipo 2000-OPTI). For each well, 0.3 μg of plasmid was diluted in 25 μL of OPTI-MEM (Invitrogen), and the solution was added to the Lipo 2000-OPTI and mixed gently and incubated for 30 minutes at room temperature, and was transferred 50 μL for each well to culture medium. The cells were incubated at 37° C. with 5% CO2 condition for 2 days, and used for the uptake assays.
An Uptake buffer was prepared by addition of a mixture of non-radioisotope labeled (WAKO) and ^14C-labeled (Muromachi Yakuhin) inosine at the final concentration of 10 μM into a buffer, pH7.4, containing 140 mM sodium chloride, 2 mM potassium chloride, 1 mM calcium chloride, 1 mM magnesium chloride, 10 mM HEPES 2-[4-(2-hydroxyethyl)-1-piperazinyl]ethane sulfonic acid, 5 mM tris(hydroxymethyl)aminomethane and 5 mM glucose. For measurement of basal uptake, Basal uptake measurement buffer, which contained 140 mM choline chloride instead of sodium chloride was prepared. In uptake assays, NBMPR was added to Uptake buffer and Basal uptake measurement buffer at the final concentration of […]. In the case of measurement of inhibitory activity of test compounds, test compounds were dissolved in dimethyl sulfoxide, and then appropriately diluted with Uptake buffer as to prepare Measurement buffers. After removing culture medium of human CNT2 transiently expressing cells, Pretreatment buffer (Basal uptake measurement buffer without inosine and glucose) was added to wells at 200 μL/well and incubated at 37° C. for 10 minutes. After repeating the same step again, Pretreatment buffer was removed and Measurement buffers and Basal uptake measurement buffer were added at 75 μL/well and incubated at 37° C. After incubation for 30 minutes, Measurement buffers and Basal uptake measurement buffer were removed, and the cells were washed with Washing buffer (Basal uptake measurement buffer with non-radioisotope labeled inosine at 10 μM) at 200 μL/well twice. The cells were solubilized with 0.2 mol/L sodium hydroxide at 75 μL/well, and the cell lysates were transferred into PicoPlates (Perkin Elmer). After mixing with 150 μL of MicroScint-40 (Perkin Elmer), radioactivity was measured by means of scintillation counter (Perkin Elmer). One hundred % was set to the difference between the uptake in the control group and the basal uptake, and the uptake of inosine at each test compound concentration was calculated. The test compound concentration inhibiting 50% uptake of inosine (IC50 value) was calculated using logit plot.
Turning to `CN(C)CCCOc1cccc(-c2ccc(CCNc3nc4c(N)ncnc4n3[C@@H]3O[C@H](CO)[C@@H](O)[C@H]3O)cc2)c1` [Example 171], the pIC50 is 5.61.
`NC(=O)[C@H](Cc1ccc(O)cc1)NCCCOc1cccc(-c2ccc(CNc3nc4c(N)ncnc4n3[C@@H]3O[C@H](CO)[C@@H](O)[C@H]3O)cc2)c1` [Example 164] gave a pIC50 of 7.07.
`CN(C)CCCOc1cccc(-c2ccc(CNc3nc4c(N)ncnc4n3[C@@H]3O[C@H](CO)[C@@H](O)[C@H]3O)cc2)c1` [Example 117] showed a pIC50 of 6.42.
Take `CCN(CCO)CCCOc1cc(CNc2nc3c(N)ncnc3n2[C@@H]2O[C@H](CO)[C@@H](O)[C@H]2O)ccc1-c1ccccc1` [Example 130]: the negative logarithm of the IC50 (pIC50) is 6.65.
`Nc1ncnc2c1nc(NCc1ccc(-c3ccsc3)cc1)n2[C@@H]1O[C@H](CO)[C@@H](O)[C@H]1O` [Example 132] had a pIC50 of 6.19.
The same measure, in the same setting: for `NCCCOc1cc(CNc2nc3c(N)ncnc3n2[C@H]2C[C@H](O)[C@@H](CO)O2)ccc1-c1ccccc1` [Example 155] the value was 6.58; for `Nc1ncnc2c1nc(NCc1ccc(-c3cccc(OCCCN4CCCCC4)c3)cc1)n2[C@@H]1O[C@H](CO)[C@@H](O)[C@H]1O` [Example 125], 6.28; for `NCCCOc1ccc(-c2cccc(CNc3nc4c(N)ncnc4n3[C@@H]3O[C@H](CO)[C@@H](O)[C@H]3O)c2)cc1` [Example 149], 6.75.
As for `N=C(N)NCCCOc1cccc(-c2ccc(CNc3nc4c(N)ncnc4n3[C@@H]3O[C@H](CO)[C@@H](O)[C@H]3O)cc2)c1` [Example 157, 8-[3′-(3-Guanidinopropoxy)biphenyl-4-ylmethylamino]-adenosine], the pIC50 is 6.63.
Molecule `CCN(CC)CCCOc1cc(CNc2nc3c(N)ncnc3n2[C@@H]2O[C@H](CO)[C@@H](O)[C@H]2O)ccc1-c1ccccc1` [Example 115, 8-[2-(3-Diethylaminopropoxy)biphenyl-4-ylmethylamino]-adenosine] showed a pIC50 of 6.42.
On the same count and under the same terms, to `NCCCOc1cccc(-c2ccc(CNc3nc4c(N)ncnc4n3[C@@H]3O[C@H](CO)[C@@H](O)[C@@H]3O)cc2)c1` [Example 154] belongs 5.15; to `NCCCOc1cc(CNc2nc3c(N)ncnc3n2[C@@H]2O[C@H](CO)[C@@H](O)[C@@H]2O)ccc1-c1ccccc1` [Example 153], 5.79.
Molecule `C[N+](C)(C)CCCOc1cccc(-c2ccc(CNc3nc4c(N)ncnc4n3[C@@H]3O[C@H](CO)[C@@H](O)[C@H]3O)cc2)c1` [Example 167] gave a pIC50 of 6.39.
As for `Nc1ncnc2c1nc(NCc1ccc(-c3ccccc3)c(OCCCN3CCCC3)c1)n2[C@@H]1O[C@H](CO)[C@@H](O)[C@H]1O` [Example 120], the pIC50 is 6.35.
In turn, `CCCNCCCOc1cc(CNc2nc3c(N)ncnc3n2[C@@H]2O[C@H](CO)[C@@H](O)[C@H]2O)ccc1-c1ccccc1` [Example 147] had a pIC50 of 6.49.

The next experiment concerns the target T2, ENT2 (Homo sapiens, UniProt Q14542).
T2 sequence (Q14542 1-456): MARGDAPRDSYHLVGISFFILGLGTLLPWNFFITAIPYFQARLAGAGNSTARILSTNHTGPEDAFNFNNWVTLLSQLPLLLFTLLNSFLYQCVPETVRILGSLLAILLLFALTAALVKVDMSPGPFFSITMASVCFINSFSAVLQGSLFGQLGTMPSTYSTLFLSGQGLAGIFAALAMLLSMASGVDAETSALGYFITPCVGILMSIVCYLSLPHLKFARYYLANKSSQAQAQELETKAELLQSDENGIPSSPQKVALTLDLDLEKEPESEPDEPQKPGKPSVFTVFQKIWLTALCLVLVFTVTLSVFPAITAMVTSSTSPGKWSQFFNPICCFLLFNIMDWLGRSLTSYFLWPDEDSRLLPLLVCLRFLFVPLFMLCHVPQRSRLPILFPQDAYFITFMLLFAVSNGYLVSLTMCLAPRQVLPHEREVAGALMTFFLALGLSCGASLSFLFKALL
Assay: not given
Conditions: ENT2 inhibited only by high concentration of NBMPR; cited from earlier work.
Take `O=[N+]([O-])c1ccc(CSc2ncnc3c2ncn3C2OC(CO)C(O)C2O)cc1` (centres unmarked) [NBMPR, nitrobenzylthioinosine]: the pIC50 is < 6.00.

The subject of another experiment is CNT.
Assay: not given
Conditions: Non-patent Reference 14; cited from earlier work.
Turning to `Nc1ncnc2c1nc(Br)n2[C@@H]1O[C@H](CO)[C@@H](O)[C@H]1O` [8-bromoadenosine], the “inhibitory activity against CNT” value is “weak inhibitory activity”.
